Reference: ChEMBL document CHEMBL4368907 (J Med Chem, 2019)
Numbered stars: 1 amine (or outer) side, 2 acyl side, 3 side chain; on linkers, the order of the positions; unused ones are H or OH. Square brackets hold non-standard residues; d marks the D form. Side chains are listed from the residue outwards. Peptide text beside a SMILES is read from it. * marks the point of attachment. Phe(4-CH2SO3H) = N[C@@H](Cc1ccc(CS(=O)(=O)O)cc1)C(=O)O; Ala(indol-2-yl) = N[C@@H](Cc1cc2ccccc2[nH]1)C(=O)O; sY = N[C@@H](Cc1ccc(OS(=O)(=O)O)cc1)C(=O)O; C18 diacid = O=C(O)CCCCCCCCCCCCCCCCC(=O)*; C16 diacid = O=C(O)CCCCCCCCCCCCCCC(=O)*; γGlu = O=C(O)[C@H](CCC(=O)[*:2])N[*:1]; NMeF = CN[C@@H](Cc1ccccc1)C(=O)O; NMeD = CN[C@@H](CC(=O)O)C(=O)O; dNMeD = CN[C@H](CC(=O)O)C(=O)O; Nle = CCCC[C@H](N)C(=O)O; X1 = O=C(Cc1ccc(O)cc1)*; AEEA = NCCOCCOCC(=O)O

Experiments:
[1] = target: T1, Cholecystokinin receptor type A (Homo sapiens, UniProt P32238); assay: Displacement of [125I]-CCK-8 from human CCK1R expressed in human 1321N1 cell membranes after 2 hrs by SPA assay
T1 sequence (P32238 whole entry): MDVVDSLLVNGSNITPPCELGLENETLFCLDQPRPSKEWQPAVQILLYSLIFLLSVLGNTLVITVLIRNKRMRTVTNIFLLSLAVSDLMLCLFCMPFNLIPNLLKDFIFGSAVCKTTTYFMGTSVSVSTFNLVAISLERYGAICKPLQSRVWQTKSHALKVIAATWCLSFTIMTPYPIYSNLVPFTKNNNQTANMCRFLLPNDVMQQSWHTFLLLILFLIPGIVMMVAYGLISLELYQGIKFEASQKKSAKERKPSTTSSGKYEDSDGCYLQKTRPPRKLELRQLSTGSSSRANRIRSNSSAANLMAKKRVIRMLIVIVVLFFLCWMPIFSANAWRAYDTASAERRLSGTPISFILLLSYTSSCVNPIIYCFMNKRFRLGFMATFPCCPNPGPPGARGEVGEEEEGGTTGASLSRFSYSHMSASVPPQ

[2] = target: T1, Cholecystokinin receptor type A; assay: Agonist activity at human CCK1R expressed in human 1321N1 cells assessed as IP1 accumulation after 1 hr by HTRF assay; assay type: functional, cell-based
[3] = target: T2, Gastrin/cholecystokinin type B receptor (Homo sapiens, UniProt P32239); assay: Agonist activity at human CCK2R expressed in human 1321N1 cells assessed as IP1 accumulation after 1 hr by HTRF assay; assay type: functional, cell-based
T2 sequence (P32239 whole entry): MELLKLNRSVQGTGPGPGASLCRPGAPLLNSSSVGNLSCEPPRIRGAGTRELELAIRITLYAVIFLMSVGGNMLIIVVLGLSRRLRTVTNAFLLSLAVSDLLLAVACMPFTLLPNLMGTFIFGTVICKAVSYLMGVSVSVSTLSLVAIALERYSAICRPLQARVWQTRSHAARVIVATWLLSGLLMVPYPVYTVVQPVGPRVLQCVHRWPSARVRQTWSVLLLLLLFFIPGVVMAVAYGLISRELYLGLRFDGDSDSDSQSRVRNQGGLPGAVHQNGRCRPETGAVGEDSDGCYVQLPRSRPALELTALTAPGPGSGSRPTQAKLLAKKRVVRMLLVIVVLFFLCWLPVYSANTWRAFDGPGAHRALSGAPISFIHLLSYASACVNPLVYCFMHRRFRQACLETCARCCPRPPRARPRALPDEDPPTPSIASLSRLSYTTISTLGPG

[4] = target: T2, Gastrin/cholecystokinin type B receptor; assay: Displacement of [125I]-CCK-8 from human CCK2R expressed in human 1321N1 cell membranes after 2 hrs by SPA assay

Row | IC50 [1] | EC50 [2] | pEC50 [3] | pIC50 [1] | pIC50 [4] | pEC50 [2] | EC50 [3] | IC50 [4] | SMILES
1 | 851 nM | 269 nM |  |  |  |  |  |  | CSCC[C@H](NC(=O)[C@H](Cc1c[nH]c2ccccc12)NC(=O)CNC(=O)[C@H](Cc1ccc(O)cc1)NC(=O)[C@H](C)NC(=O)[C@H](CCC(=O)O)NC(=O)[C@H](CCC(=O)O)NC(=O)[C@H](CCC(=O)O)NC(=O)[C@H](CCC(=O)O)NC(=O)[C@H](CCC(=O)O)NC(=O)[C@H](CC(C)C)NC(=O)[C@H](Cc1c[nH]c2ccccc12)NC(=O)[C@@H]1CCCN1C(=O)CNC(=O)[C@@H]1CCC(=O)N1)C(=O)N[C@@H](CC(=O)O)C(=O)N[C@@H](Cc1ccccc1)C(N)=O
2 |  |  | < 6 | 9.3 | 5.08 | 10.22 |  |  | CCCC[C@H](NC(=O)[C@H](Cc1c[nH]c2ccccc12)NC(=O)CNC(=O)[C@@H](CCCNC(=O)COCCOCCNC(=O)COCCOCCNC(=O)CC[C@H](NC(=O)CCCCCCCCCCCCCCCCC(=O)O)C(=O)O)NC(=O)Cc1ccc(O)cc1)C(=O)N(C)[C@H](CC(=O)O)C(=O)N(C)[C@@H](Cc1ccccc1)C(N)=O
3 | 0.339 nM | 0.107 nM |  |  |  |  | 5.01 nM | 759 nM | CCCC[C@H](NC(=O)[C@H](Cc1ccc(O)cc1)NC(=O)[C@H](CC(=O)O)NC(=O)COCCOCCNC(=O)COCCOCCNC(=O)CC[C@H](NC(=O)CCCCCCCCCCCCCCCCC(=O)O)C(=O)O)C(=O)NCC(=O)N[C@@H](Cc1c[nH]c2ccccc12)C(=O)N[C@@H](CCCCNC(=O)Nc1ccccc1C)C(=O)N[C@@H](CC(=O)O)C(=O)N(C)[C@@H](Cc1ccccc1)C(N)=O
4 |  |  |  |  |  |  | 1.55 nM | 245 nM | CCCC[C@H](NC(=O)[C@H](Cc1c[nH]c2ccccc12)NC(=O)CNC(=O)[C@H](CC(C)C)NC(=O)[C@H](Cc1ccc(OS(=O)(=O)O)cc1)NC(=O)[C@H](CC(=O)O)NC(=O)COCCOCCNC(=O)COCCOCCNC(=O)CC[C@H](NC(=O)CCCCCCCCCCCCCCCCC(=O)O)C(=O)O)C(=O)N(C)[C@@H](CC(=O)O)C(=O)N[C@@H](Cc1ccccc1)C(N)=O
5 |  |  |  |  |  |  | 132 nM | 5620 nM | CCCC[C@H](NC(=O)[C@H](Cc1c[nH]c2ccccc12)NC(=O)CNC(=O)[C@H](CC(C)C)NC(=O)[C@H](Cc1ccc(OS(=O)(=O)O)cc1)NC(=O)[C@H](CC(=O)O)NC(=O)COCCOCCNC(=O)COCCOCCNC(=O)CC[C@H](NC(=O)CCCCCCCCCCCCCCCCC(=O)O)C(=O)O)C(=O)N(C)[C@H](CC(=O)O)C(=O)N[C@@H](Cc1ccccc1)C(N)=O
6 | 0.0871 nM | 0.115 nM |  |  |  |  | 0.457 nM | 0.288 nM | CCCC[C@H](NC(=O)[C@H](Cc1c[nH]c2ccccc12)NC(=O)CNC(=O)[C@H](CC(C)C)NC(=O)[C@H](Cc1ccc(OS(=O)(=O)O)cc1)NC(=O)[C@H](CC(=O)O)NC(=O)COCCOCCNC(=O)COCCOCCNC(=O)CC[C@H](NC(=O)CCCCCCCCCCCCCCCCC(=O)O)C(=O)O)C(=O)N[C@@H](CC(=O)O)C(=O)N(C)[C@@H](Cc1ccccc1)C(N)=O
7 | 0.275 nM | 0.129 nM |  |  |  |  | 0.501 nM | 0.166 nM | CCCC[C@H](NC(=O)[C@H](Cc1c[nH]c2ccccc12)NC(=O)CNC(=O)[C@H](CC(C)C)NC(=O)[C@H](Cc1ccc(OS(=O)(=O)O)cc1)NC(=O)[C@H](CC(=O)O)NC(=O)COCCOCCNC(=O)COCCOCCNC(=O)CC[C@H](NC(=O)CCCCCCCCCCCCCCCCC(=O)O)C(=O)O)C(=O)N[C@@H](CC(=O)O)C(=O)N[C@@H](Cc1ccccc1)C(N)=O
8 | 0.0741 nM | 0.363 nM |  |  |  |  | 123 nM |  | CCCC[C@H](NC(=O)[C@H](Cc1c[nH]c2ccccc12)NC(=O)CNC(=O)[C@H](CC(C)C)NC(=O)[C@H](Cc1ccc(OS(=O)(=O)O)cc1)NC(=O)[C@H](CC(=O)O)NC(=O)COCCOCCNC(=O)COCCOCCNC(=O)CC[C@H](NC(=O)CCCCCCCCCCCCCCCCC(=O)O)C(=O)O)C(=O)N(C)[C@H](CC(=O)O)C(=O)N(C)[C@@H](Cc1ccccc1)C(N)=O
9 |  |  | 6.5 | 10.19 | 6.24 | 9.61 |  |  | CCCC[C@H](NC(=O)[C@H](Cc1cc2ccccc2[nH]1)NC(=O)CNC(=O)[C@H](CCCCNC(=O)COCCOCCNC(=O)COCCOCCNC(=O)CC[C@H](NC(=O)CCCCCCCCCCCCCCCCC(=O)O)C(=O)O)NC(=O)[C@H](Cc1ccc(OS(=O)(=O)O)cc1)NC(=O)[C@H](CC(=O)O)NC(C)=O)C(=O)N(C)[C@@H](CC(=O)O)C(=O)N(C)[C@@H](Cc1ccccc1)C(N)=O (Ac-D[sY]K([AEEA-AEEA-γGlu-C18 diacid])G[Ala(indol-2-yl)][Nle][NMeD][NMeF]-NH2)
10 | 15.5 nM | 9.12 nM |  |  |  |  | 195 nM | 3020 nM | CCCC[C@H](NC(=O)Cc1ccc(O)cc1)C(=O)NCC(=O)N[C@@H](Cc1c[nH]c2ccccc12)C(=O)N[C@@H](CCCC)C(=O)N(C)[C@@H](CC(=O)O)C(=O)N[C@@H](Cc1ccccc1)C(N)=O (X1-[Nle]GW[Nle][NMeD]F-NH2)
11 | 42.7 nM | 8.51 nM |  |  |  |  | > 1000 nM | > 10000 nM | CCCC[C@H](NC(=O)Cc1ccc(O)cc1)C(=O)NCC(=O)N[C@@H](Cc1c[nH]c2ccccc12)C(=O)N[C@@H](CCCC)C(=O)N(C)[C@@H](CC(=O)O)C(=O)N(C)[C@@H](Cc1ccccc1)C(N)=O (X1-[Nle]GW[Nle][NMeD][NMeF]-NH2)
12 | 7.08 nM | 1.55 nM |  |  |  |  | > 1000 nM | > 10000 nM | CCCC[C@H](NC(=O)Cc1ccc(O)cc1)C(=O)NCC(=O)N[C@@H](Cc1c[nH]c2ccccc12)C(=O)N[C@@H](CCCC)C(=O)N(C)[C@H](CC(=O)O)C(=O)N[C@@H](Cc1ccccc1)C(N)=O (X1-[Nle]GW[Nle][dNMeD]F-NH2)
13 |  | 0.191 nM |  |  |  |  |  |  | CCCC[C@H](NC(=O)[C@H](Cc1c[nH]c2ccccc12)NC(=O)CNC(=O)[C@H](CC(C)C)NC(=O)[C@H](Cc1ccc(CS(=O)(=O)O)cc1)NC(=O)[C@H](CC(=O)O)NC(=O)COCCOCCNC(=O)COCCOCCNC(=O)CC[C@H](NC(=O)CCCCCCCCCCCCCCC(=O)O)C(=O)O)C(=O)N(C)[C@H](CC(=O)O)C(=O)N(C)[C@@H](Cc1ccccc1)C(N)=O ({C16 diacid-γGlu-AEEA-AEEA}-D[Phe(4-CH2SO3H)]LGW[Nle][dNMeD][NMeF]-NH2)
14 |  |  | < 6 | 8.37 | < 5 | 9.41 |  |  | CCCC[C@H](NC(=O)[C@H](Cc1c[nH]c2ccccc12)NC(=O)CNC(=O)[C@H](CC(C)C)NC(=O)[C@@H](NC(=O)[C@H](CC(=O)O)NC(=O)COCCOCCNC(=O)COCCOCCNC(=O)CC[C@H](NC(=O)CCCCCCCCCCCCCCCCC(=O)O)C(=O)O)[C@@H](C)CC)C(=O)N(C)[C@@H](CC(=O)O)C(=O)N(C)[C@@H](Cc1ccccc1)C(N)=O ({C18 diacid-γGlu-AEEA-AEEA}-DILGW[Nle][NMeD][NMeF]-NH2)
15 | 0.617 nM | 0.166 nM |  |  |  |  |  |  | CC(C)C[C@H](NC(=O)[C@H](Cc1ccc(OS(=O)(=O)O)cc1)NC(=O)[C@H](CC(=O)O)NC(=O)COCCOCCNC(=O)COCCOCCNC(=O)CC[C@H](NC(=O)CCCCCCCCCCCCCCCCC(=O)O)C(=O)O)C(=O)NCC(=O)N[C@@H](Cc1c[nH]c2ccccc12)C(=O)N[C@@H](C)C(=O)N(C)[C@H](CC(=O)O)C(=O)N(C)[C@@H](Cc1ccccc1)C(N)=O ({C18 diacid-γGlu-AEEA-AEEA}-D[sY]LGWA[dNMeD][NMeF]-NH2)
